Format in all cases: cell-based
In data set [1] the test system is P. falciparum CQ-sensitive (CQ-S) D10 strain. The data set can be described thus: antiplasmodial drug susceptibility assay (pLDH), CQ-sensitive strain. Particulars: Plasmodium falciparum; P. falciparum D10, 72 h, pLDH; mean value with standard deviation; read-out: IC50 D10 (CQ-S). Here is the method: (§1) P. falciparum cultures were carried out according to Trager and Jensen with slight modifications. The CQ-sensitive strain D10 and the CQ-resistant strain W2 were maintained at 5% hematocrit (human A-positive erythrocytes) in RPMI 1640 medium (EuroClone S.p.A, Milan, Italy) with the addition of 1% AlbuMax (Invitrogen, San Diego, California, USA), 0.01% hypoxanthine, 20 mM Hepes, and 2 mM glutamine at 37 °C in a standard gas mixture (1% O2, 5% CO2, and 94% N2). […] Drugs were placed in 96-well flat-bottomed microplates, and serial dilutions were made. Asynchronous cultures with parasitaemia of 1–1.5% and 1% final hematocrit were aliquoted into the plates and incubated for 72 h at 37 °C. Parasite growth was determined spectrophotometrically (OD650nm) by measuring the activity of the parasite lactate dehydrogenase (pLDH), as described in a modified version of Makler’s method in control- and drug-treated cultures. The antiplasmodial activity is expressed as 50% inhibitory concentrations (IC50); each IC50 value is the mean ± standard deviation of at least three separate experiments performed in duplicate.

Data set [2] relates to P. falciparum CQ-resistant (CQ-R) W2 strain. The data set can be described thus: antiplasmodial drug susceptibility assay (pLDH), CQ-resistant strain. To be noted: Plasmodium falciparum; P. falciparum W2, 72 h, pLDH; mean value with standard deviation; read-out: IC50 W2 (CQ-R). The procedure: as §1
The next data set deals with S. aureus ATCC 25923. The data set can be described thus: broth microdilution antimicrobial assay (MIC, IC50). Particulars: Staphylococcus aureus, ATCC25923; for MIC: broth microdilution, 24 h, range 100–0.19 µM. From the text: (§2) Reference bacterial strains of Staphylococcus aureus (ATCC 25923) and Escherichia coli (ATCC 25922) were used in this study as Gram-positive and negative models, respectively. These reference strains were purchased from the American Type Culture Collection (ATCC, Manassas, VA, USA). Clinical isolates, identified by MALDI-TOF MS (Bruker Daltonik, GmbH, Bremen, Germany), were profiled for their antibiotic susceptibility by using the Vitek2 semiautomated system (bioMérieux, Craponne, France) and according to EUCAST (Version 12, 2022, http://www.eucast.org (accessed on 1 January 2022)). The bacterial cultures were routinely grown on 5% blood agar plates (Biolife Italiana S.r.l., Milan, Italy) and were freshly used in the antibacterial assays.
(§3) The minimum inhibitory concentrations (MICs) were determined using the microbroth dilution method in microtiter plates according to the Clinical and Laboratory Standards Institute (CLSI) guidelines. In short, microbial inocula were prepared at 0.5 McFarland in PBS and, subsequently, bacterial suspensions were diluted 1:200 in Mueller–Hinton broth (Sigma-Aldrich, St. Louis, MO, USA), while fungal inoculum was diluted 1:20 in RPMI-1640 medium (Gibco®, ThermoFisher Scientific Inc., Waltham, MA, USA), containing glucose 2%, 0.3% levo-glutamine buffered to pH 7.0 with 0.165 M 3-(N-morpholino)propanesulfonic acid (MOPS). A total of 100 µL of these microbial suspensions was introduced into a 96-well microplate and incubated with 100 µL of the compounds, two-fold serially diluted in the range of 100–0.19 µM. Positive controls (microbial suspensions in regular media), negative controls (only compounds), solvent controls (microbial suspensions incubated with DMSO dilutions), and the reference drug controls were included in the tests. The plate was incubated at 37 °C for 24 h, and subsequently the optical density at 630 nm (OD630nm) was spectrophotometrically measured. Experiments were performed in triplicate with three biological replicates. In addition to MIC, IC50 values were measured for the active compounds. The values, corresponding to the concentration of the compound giving rise to an inhibition of growth of 50%, were obtained by interpolation on dose–response curves generated by plotting the percentages of growth inhibition, relative to the positive control (set to 100% of growth), as a function of the tested concentrations (on a logarithm scale). Statistical analysis was carried out by using GraphPad Prism version 9.4.1 for Windows (GraphPad Software, San Diego, CA, USA, www.graphpad.com).

Another data set deals with E. coli ATCC 25923. In words: broth microdilution antimicrobial assay (MIC). To be noted: Escherichia coli, ATCC25923, 24 h, range 100–0.19 µM.
The test system of the next data set is C. albicans ATCC 10231. In words: broth microdilution antifungal assay (MIC). To be noted: Candida albicans, ATCC10231, 24 h, range 100–0.19 µM. Here is the method:
The reference strain of Candida albicans (ATCC 10231) was used in the present study and maintained on Sabouraud Dextrose Agar (Biolife Italiana S.r.l., Milan, Italy) before the antifungal assays.
as §3

Data set [3] has as its system clinical isolates of methicillin-resistant S. aureus (MRSA). In words: broth microdilution IC50 on MRSA clinical isolates. Particulars: Staphylococcus aureus; five MRSA clinical isolates, range of IC50; read-out: IC50 ranges, MRSA (n = 5).
Excerpt: as §2, §3
On the technique in general: Broth dilution looks for growth in wells or tubes with falling amounts of substance.

Data set [4] in a line: cell viability and proliferation assay (CCK-8/WST8). Particulars: human, WS1 cells (human-derived fibroblasts, ATCC CRL-1502), mean value with standard deviation. The procedure: WS1 cells (ATCC CRL-1502) were selected as a model system to investigate the effect of PTZ-quinoline hybrid compounds on human-derived fibroblasts. Briefly, cells were cultured in DMEM-High glucose supplemented with 10% fetal bovine serum (FBS) (Carlo Erba Reagents, Milan, Italy), 100 U/mL penicillin, and 100 µg/mL streptomycin at 37 °C with 5% CO2. For experiments, cells were seeded into 96-well plates at 0.7 × 10^4 cells/well, and incubated at 37 °C for 24 h. […] Cell viability was assessed by a WST8-based assay according to the manufacturer’s instructions (CCK-8, Cell Counting Kit-8, Dojindo Molecular Technologies, Rockville, MD, USA). After 48 h of incubation, culture medium was removed from each well, the monolayer was washed with PBS, and 100 µL of fresh medium containing 10 µL of CCK-8 solution was added. Following a 2 h incubation at 37 °C, the OD450nm was read, and data were expressed as the percentage of cell viability relative to the untreated controls. The CC50 was obtained on the corresponding dose–response curves generated as previously reported for IC50 values. Experiments were carried out in triplicate in three biological replicates.

Where [5] appears, read: S. aureus ATCC 25923, 24 h, OD630, mean value with standard deviation, read-out: IC50 ATCC 25923.
Where [6] appears, read: reference strain, range of IC50, read-out: IC50 ranges, ATCC 25923.

Converted amounts (≈) assume the structure as drawn. Like-named read-outs stand apart in the source and are kept apart here.

In the case of `Clc1ccc2c(c1)N(Cc1cn(CCNc3ccnc4cc(Cl)ccc34)nn1)c1ccccc1S2` [Compound 4b, 7-chloro-N-(2-(4-((2-chloro-10H-phenothiazin-10-yl)methyl)-1H-1,2,3-triazol-1-yl)ethyl)quinolin-4-amine], the IC50 is 0.156 ± 0.018 µM in data set [1]; 0.154 ± 0.002 µM in data set [2]; 4.86 ± 0.89 µM in the data set on S. aureus ATCC 25923 (setting [5]); 3.97 to 5.75 µM in the data set with S. aureus ATCC 25923 (setting [6]); 4.42 to 6.48 µM in data set [3]. Also, the figures for the MIC against S. aureus ATCC 25923, in the data set with E. coli ATCC 25923 and in the data set with C. albicans ATCC 10231 were 6.25 to 12.5 µM (≈ 3.25 to 6.49 µg/mL), more than 100 µM and more than 100 µM, respectively. The same compound came in with a CC50 at 48 h in data set [4] of 12.7 ± 3.51 µM.

Regarding `Clc1ccc2c(c1)N(Cc1cn(CCCNc3ccnc4cc(Cl)ccc34)nn1)c1ccccc1S2` [Compound 5b, 7-chloro-N-(3-(4-((2-chloro-10H-phenothiazin-10-yl)methyl)-1H-1,2,3-triazol-1-yl)propyl)quinolin-4-amine], the IC50 in data set [1] is 0.146 ± 0.006 µM; in data set [2] it was 0.135 ± 0.017 µM; in the data set with S. aureus ATCC 25923 (setting [5]), 5.03 ± 1.72 µM; in the data set on S. aureus ATCC 25923 (setting [6]), 3.31 to 6.75 µM; in data set [3], 6.18 to 10.3 µM. The minimal inhibitory concentration (MIC) against S. aureus ATCC 25923 is 6.25 to 12.5 µM (≈ 3.33 to 6.67 µg/mL); against E. coli ATCC 25923, more than 100 µM; against C. albicans ATCC 10231 it was more than 100 µM. In data set [4], this compound displayed a CC50 at 48 h of 22.1 ± 0.66 µM.

Regarding `Clc1ccc2c(N3CCN(CCCCCN4c5ccccc5Sc5ccccc54)CC3)ccnc2c1` [Compound 3, 10-(5-(4-(7-chloroquinolin-4-yl)piperazin-1-yl)pentyl)-10H-phenothiazine], the IC50 in data set [1] was found to be 2.34 ± 0.012 µM; in data set [2], 0.99 ± 0.245 µM. The MIC against S. aureus ATCC 25923, against E. coli ATCC 25923 and against C. albicans ATCC 10231 was more than 100 µM throughout. The compound further came in with a CC50 at 48 h in data set [4] of more than 100 µM.

`Clc1ccc2c(NCCn3cc(CN4c5ccccc5Sc5ccccc54)nn3)ccnc2c1` [Compound 4a, N-(2-(4-((10H-phenothiazin-10-yl)methyl)-1H-1,2,3-triazol-1-yl)ethyl)-7-chloroquinolin-4-amine]: the IC50 in data set [1] is 0.142 ± 0.02 µM; in data set [2], 0.2 ± 0.03 µM; with S. aureus ATCC 25923 (setting [5]), 7.49 ± 0.15 µM; with S. aureus ATCC 25923 (setting [6]), 7.34 to 7.64 µM; in data set [3], 7.75 to 8.98 µM. Besides, the MIC against S. aureus ATCC 25923 is 12.5 µM (≈ 6.06 µg/mL); in the data set with E. coli ATCC 25923, more than 100 µM; in the data set with C. albicans ATCC 10231, more than 100 µM. For the same compound, in data set [4], half-maximal cytotoxicity (CC50 at 48 h) was put at 17.9 ± 3.23 µM.

For `Clc1ccc2c(NCCCCCn3cc(CN4c5ccccc5Sc5ccccc54)nn3)ccnc2c1` [Compound 6a, N-(5-(4-((10H-phenothiazin-10-yl)methyl)-1H-1,2,3-triazol-1-yl)pentyl)-7-chloroquinolin-4-amine], the IC50 in data set [1] was determined as 0.326 ± 0.12 µM; in data set [2], 0.377 ± 0.066 µM. Besides, the MIC in the data set with S. aureus ATCC 25923, with E. coli ATCC 25923 and in the data set on C. albicans ATCC 10231 was more than 100 µM throughout. This compound showed a CC50 at 48 h in data set [4] of 48.3 ± 0.9 µM.

On to `Clc1ccc2c(N3CCN(CCCn4cc(CN5c6ccccc6Sc6ccccc65)nn4)CC3)ccnc2c1` [Compound 8, 10-((1-(3-(4-(7-chloroquinolin-4-yl)piperazin-1-yl)propyl)-1H-1,2,3-triazol-4-yl)methyl)-10H-phenothiazine], for which the 50% inhibitory concentration (IC50) in data set [1] came out at 12.6 ± 0.241 µM; in data set [2], 2.17 ± 0.243 µM. Also, the MIC in the data set with S. aureus ATCC 25923, in the data set on E. coli ATCC 25923 and in the data set with C. albicans ATCC 10231 was more than 100 µM each time. This compound also had a CC50 at 48 h in data set [4] of more than 100 µM.

Turning to `Clc1ccc2c(c1)N(Cc1cn(CCCCCNc3ccnc4cc(Cl)ccc34)nn1)c1ccccc1S2` [Compound 6b, 7-chloro-N-(5-(4-((2-chloro-10H-phenothiazin-10-yl)methyl)-1H-1,2,3-triazol-1-yl)pentyl)quinolin-4-amine], the IC50 in data set [1] came out at 0.602 ± 0.314 µM; in data set [2] it was 0.184 ± 0.093 µM; in the data set on S. aureus ATCC 25923 (setting [5]) it was 25.1 ± 1.76 µM. The MIC against S. aureus ATCC 25923 is 50 µM (≈ 28.1 µg/mL); against E. coli ATCC 25923, more than 100 µM; in the data set with C. albicans ATCC 10231, more than 100 µM. In addition, in data set [4], it took 34.3 ± 0.52 µM to reach half-maximal cytotoxicity (CC50 at 48 h).

On to `Clc1ccc2c(NCCCn3cc(CN4c5ccccc5Sc5ccccc54)nn3)ccnc2c1` [Compound 5a, N-(3-(4-((10H-phenothiazin-10-yl)methyl)-1H-1,2,3-triazol-1-yl)propyl)-7-chloroquinolin-4-amine], for which the IC50 in data set [1] is 0.292 ± 0.078 µM; in data set [2], 0.174 ± 0.025 µM; in the data set on S. aureus ATCC 25923 (setting [5]), 6.73 ± 1.32 µM; in the data set on S. aureus ATCC 25923 (setting [6]), 5.41 to 8.05 µM; in data set [3], 6.4 to 9.63 µM. In addition, the results for the MIC against S. aureus ATCC 25923, with E. coli ATCC 25923 and against C. albicans ATCC 10231 were 12.5 µM (≈ 6.24 µg/mL), more than 100 µM and more than 100 µM, respectively. The CC50 at 48 h in data set [4] was found to be 11.8 ± 0.14 µM.

A word on the IC50: it is the concentration needed to halve the response being measured. Broadly, the MIC is the least concentration at which growth counts as inhibited. The low end stands for greater potency, the high end for weaker potency. As usually defined, the CC50 is the concentration giving 50% cytotoxicity. High values mean better tolerance by the cells, low ones harm at low concentration.

Source of the values: paper PMC12561106, “STOP Strategy to Inhibit P. falciparum and S. aureus Growth: Molecular Mechanism Studies on Purposely Designed Hybrids” (Antibiotics, 2025).
